# In ChEMBL document CHEMBL1201862, “PubChem BioAssay data set” (2004):
#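 Five compound concentrations were applied to cells in 96-well plates for 48 hours; endpoints were derived by simple linear interpolation of the resulting dose-response curve. At the GI50, growth is halved.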 Active and inactive are the calls of the source. Cut-off read from the data, not from the text of the source: active = GI50 up to about 1.1 µM and inactive = higher.
# Columns and labels:
# Assay in all cases: NCI anticancer screen, dose series, 48 h
# [1] = test system: CAKI-1
# [2] = test system: SNB-19
# [3] = test system: COLO 205
# [4] = test system: T47D
# [5] = test system: RPMI-8226
# [6] = test system: NCI-H460
# [7] = test system: SK-MEL-28
# [8] = test system: OVCAR-5
# [9] = test system: SF-539
# [10] = test system: BT-549
# [11] = test system: HL-60
# [12] = test system: Malme-3M
# [13] = test system: HCT-116
# [14] = test system: UO-31
# [15] = test system: IGROV-1
# [16] = test system: HCT-15
# [17] = test system: LOX IMVI
# [18] = test system: MCF7
# [19] = test system: RXF 393
# [20] = test system: M14
# [21] = test system: 786-0
# [22] = test system: SN12C
# [23] = test system: SF-295
# [24] = test system: Hs-578T
# [25] = test system: SK-OV-3
# [26] = test system: OVCAR-3
# [27] = test system: ACHN
# [28] = test system: CCRF-CEM
# [29] = test system: MDA-MB-435
# [30] = test system: SW-620
# [31] = test system: NCI-H23
# [32] = test system: UACC-62
# [33] = test system: UACC-257
# [34] = test system: PC-3
# [35] = test system: SK-MEL-2
# [36] = test system: A498
# [37] = test system: NCI/ADR-RES
# [38] = test system: DU-145
# [39] = test system: NCI-H226
# [40] = test system: TK-10
# [41] = test system: HT-29
# [42] = test system: U-251
# [43] = test system: K562
# [44] = test system: SF-268
# [45] = test system: SNB-75
# [46] = test system: SR
# [47] = test system: OVCAR-8
# [48] = test system: SK-MEL-5
# [49] = test system: HOP-92
# [50] = test system: MDA-MB-231
# [51] = test system: EKVX
# [52] = test system: A549
# [53] = test system: OVCAR-4
# [54] = test system: KM12
# [55] = test system: NCI-H522
# [56] = test system: MOLT-4
# [57] = test system: HOP-62
smiles,measurement,setting,value
S=C1N=C(Cl)/C(=C\c2ccco2)N1,GI50,[1],> 100 µM (inactive)
same,GI50,[2],> 100 µM (inactive)
same,GI50,[3],> 100 µM (inactive)
same,GI50,[4],> 100 µM (inactive)
same,GI50,[5],> 100 µM (inactive)
same,GI50,[6],> 100 µM (inactive)
same,GI50,[7],> 100 µM (inactive)
same,GI50,[8],> 100 µM (inactive)
same,GI50,[9],> 100 µM (inactive)
same,GI50,[10],> 100 µM (inactive)
same,GI50,[11],> 70.5 µM (inactive)
same,GI50,[12],> 100 µM (inactive)
same,GI50,[13],> 100 µM (inactive)
same,GI50,[14],> 100 µM (inactive)
same,GI50,[15],> 100 µM (inactive)
same,GI50,[16],> 100 µM
same,GI50,[17],> 100 µM (inactive)
same,GI50,[18],> 100 µM (inactive)
same,GI50,[19],> 100 µM (inactive)
same,GI50,[20],> 100 µM (inactive)
same,GI50,[21],> 100 µM (inactive)
same,GI50,[22],> 100 µM (inactive)
same,GI50,[23],> 100 µM (inactive)
same,GI50,[24],> 100 µM (inactive)
same,GI50,[25],> 100 µM (inactive)
same,GI50,[26],> 100 µM (inactive)
same,GI50,[27],> 100 µM (inactive)
same,GI50,[28],> 100 µM (inactive)
same,GI50,[29],> 100 µM (inactive)
same,GI50,[30],> 100 µM (inactive)
same,GI50,[31],> 100 µM (inactive)
same,GI50,[32],> 100 µM (inactive)
same,GI50,[33],> 100 µM (inactive)
same,GI50,[34],> 100 µM (inactive)
same,GI50,[35],> 100 µM (inactive)
same,GI50,[36],> 100 µM (inactive)
same,GI50,[37],> 100 µM (inactive)
same,GI50,[38],> 100 µM (inactive)
same,GI50,[39],> 80.5 µM (inactive)
same,GI50,[40],> 100 µM (inactive)
same,GI50,[41],> 100 µM (inactive)
same,GI50,[42],> 100 µM (inactive)
same,GI50,[43],> 100 µM (inactive)
same,GI50,[44],> 100 µM (inactive)
same,GI50,[45],> 74.6 µM (inactive)
same,GI50,[46],> 79.6 µM (inactive)
same,GI50,[47],> 100 µM (inactive)
same,GI50,[48],> 100 µM (inactive)
same,GI50,[49],> 100 µM (inactive)
same,GI50,[50],> 100 µM (inactive)
same,GI50,[51],> 100 µM (inactive)
same,GI50,[52],> 100 µM (inactive)
same,GI50,[53],> 47.2 µM (inactive)
same,GI50,[54],> 100 µM (inactive)
same,GI50,[55],33.7 µM (inactive)
same,GI50,[56],> 10 µM (inactive)
same,GI50,[57],> 100 µM (inactive)
